Experimental data published in US20020049223A1, “Quinoline and naphthyridine carboxylic acid antibacterials” (priority 1999, published 2002).

How the values were obtained:
Test in all cases: Assay B: in vitro antibacterial activity, broth microdilution MIC (NCCLS)
Type in all cases: cell-based
[1] = system: Streptococcus pneumoniae ATCC 6303; conditions: Table 2, Assay B, Mueller Hinton broth with 3% lysed horse blood, 20 to 24 hr; code F = Streptococcus pneumoniae ATCC 6303; unit assumed
Procedure: (§1) Assay B. Determination of Biological Activity In Vitro Assay of Antibacterial Activity
(§2) Representative compounds of the invention were assayed in vitro for antibacterial activity. The susceptibilities of aerobic, nonfastidious species were determined visually by broth microdilution as described by the National Committee for Clinical Laboratory Standards (NCCLS) (National Committee for Clinical Laboratory Standards. 1997. Methods for dilution antimicrobial susceptibility tests for bacteria that grow aerobically. Approved standard M7-A4. National Committee for Clinical Laboratory Standards. Wayne, Pa.). In brief, serial two-fold dilutions of test compounds were made in cation-adjusted Mueller Hinton broth at two-times the final concentration. Inocula were prepared from overnight cultures of test strains. Tests were inoculated with a suspension of bacteria in Mueller Hinton broth to achieve a final density of approximately 5×10^5 CFU/mL. Tests were incubated at 35° C. in ambient air for 16 to 20 hr. Minimum Inhibitory Concentrations (MICs) were determined as the lowest drug concentration completely inhibiting growth. Ciprofloxacin was included as a control. For testing S. pneumoniae, the cation-adjusted Mueller Hinton broth was supplemented with 3% lysed horse blood and the incubation period was extended to 20 to 24 hr. For testing H. influenzae, the cation-adjusted Mueller Hinton broth was supplemented with 5 g/L yeast extract, […] and 15 mg/L NAD and incubation was extended to 20 to 24 hr..

[2] = system: Haemophilus influenzae DILL AMP R; conditions: Table 2, Assay B, Mueller Hinton broth with yeast extract, hematin and NAD, 20 to 24 hr; code E = Haemophilus influenzae DILL AMP R; unit assumed
Procedure: as §1, §2

[3] = system: Escherichia coli JUHL; conditions: Table 2, Assay B, cation-adjusted Mueller Hinton broth, 35° C., 16 to 20 hr; code D = Escherichia coli JUHL; unit assumed
Procedure: as §1, §2

[4] = system: Staphylococcus aureus ATCC 6538P; conditions: Table 2, Assay B, cation-adjusted Mueller Hinton broth, 35° C., 16 to 20 hr; code A = Staphylococcus aureus ATCC 6538P; unit assumed
Procedure: as §1, §2

[5] = system: Enterococcus faecalis PIU 1967; conditions: Table 2, Assay B, cation-adjusted Mueller Hinton broth, 35° C., 16 to 20 hr; code B = Enterococcus faecalis PIU 1967; unit assumed
Procedure: as §1, §2

| Compound | Antibacterial Activity (MIC's), F [1] | Antibacterial Activity (MIC's), E [2] | Antibacterial Activity (MIC's), D [3] | Antibacterial Activity (MIC's), A [4] | Antibacterial Activity (MIC's), B [5] |
| --- | --- | --- | --- | --- | --- |
| COc1c(-c2cc3c(s2)CCC(=O)C3)ccc2c(=O)c(C(=O)O)cn(C3CC3)c12 [Example 53, 1-cyclopropyl-8-methoxy-4-oxo-7-(5-oxo-4,5,6,7-tetrahydro-1-benzothien-2-yl)-1,4-dihydro-3-quinolinecarboxylic acid] | 0.5 µg/mL | 1 µg/mL | 8 µg/mL | 0.06 µg/mL | 2 µg/mL |
| COc1c(-c2cc3c(s2)CCC(=NO)C3)ccc2c(=O)c(C(=O)O)cn(C3CC3)c12 [Example 55, 1-cyclopropyl-7-((5E/Z)-5-(hydroxyimino)-4,5,6,7-tetrahydro-1-benzothien-2-yl)-8-methoxy-4-oxo-1,4-dihydro-3-quinolinecarboxylic acid] | 0.125 µg/mL | 0.06 µg/mL | 0.5 µg/mL | ≤ 0.004 µg/mL | 0.125 µg/mL |
| CON=C1CCc2sc(-c3ccc4c(=O)c(C(=O)O)cn(C5CC5)c4c3OC)cc2C1 [Example 56, 1-cyclopropyl-8-methoxy-7-((5E/Z)-5-(methoxnimino)-4,5,6,7-tetrahydro-1-benzothien-2-yl)-4-oxo-1,4-dihydro-3-quinolinecarboxylic acid] | 0.125 µg/mL | 0.25 µg/mL | 4 µg/mL | 0.03 µg/mL | 0.5 µg/mL |
| COc1c(-c2cc3c(s2)CCC(Br)C3=O)ccc2c(=O)c(C(=O)O)cn(C3CC3)c12 (stereo not shown) [Example 58, 7-(5-bromo-4-oxo-4,5,6,7-tetrahydro-1-benzothien-2-yl)-1-cyclopropyl-8-methoxy-4-oxo-1,4-dihydro-3-quinolinecarboxylic acid] | 0.06 µg/mL | 0.015 µg/mL | 0.25 µg/mL | 0.004 µg/mL | 0.06 µg/mL |
| COc1c(-c2cc3c(s2)CC(=O)CC3)ccc2c(=O)c(C(=O)O)cn(C3CC3)c12 [Example 59, 1-cyclopropyl-8-methoxy-4-oxo-7-(6-oxo-4,5,6,7-tetrahydro-1-benzothien-2-yl)-1,4-dihydro-3-quinolinecarboxylic acid] | 0.5 µg/mL | 1 µg/mL | 8 µg/mL | 0.03 µg/mL | 1 µg/mL |
| COc1c(-c2cc3c(s2)C(=O)CCC3)ccc2c(=O)c(C(=O)O)cn(C3CC3)c12 [Example 61, 1-cyclopropyl-8-methoxy-4-oxo-7-(7-oxo-4,5,6,7-tetrahydro-1-benzothien-2-yl)-1,4-dihydro-3-quinolinecarboxylic acid] | 0.125 µg/mL | 0.125 µg/mL | 2 µg/mL | 0.03 µg/mL | 0.25 µg/mL |
| CON=C1CCCc2cc(-c3ccc4c(=O)c(C(=O)O)cn(C5CC5)c4c3OC)sc21 [Example 63, 1-cyclopropyl-8-methoxy-7-((7E/Z)-7-(methoxyimino)-4,5,6,7-tetrahydro-1-benzothien-2-yl)-4-oxo-1,4-dihydro-3-quinolinecarboxylic acid] | 0.25 µg/mL | 0.06 µg/mL | 0.05 µg/mL | 0.015 µg/mL | 0.125 µg/mL |
| CON=C1CCCc2sc(-c3ccc4c(=O)c(C(=O)O)cn(C5CC5)c4c3OC)cc21 [Example 64, 1-cyclopropyl-8-methoxy-7-((4E/Z)-4-(methoxyimino)-4,5,6,7-tetrahydro-1-benzothien-2-yl)-4-oxo-1,4-dihydro-3-quinolinecarboxylic acid] | 0.125 µg/mL | 0.25 µg/mL | 2 µg/mL | 0.03 µg/mL | 0.25 µg/mL |
| CON=C1CCc2cc(-c3ccc4c(=O)c(C(=O)O)cn(C5CC5)c4c3OC)sc2C1 [Example 66, 1-cyclopropyl-8-methoxy-7-((6E/Z)-6-(methoxyimino)-4,5,6,7-tetrahydro-1-benzothien-2-yl)-4-oxo-1,4-dihydro-3-quinolinecarboxylic acid] | 0.5 µg/mL | 0.5 µg/mL | 2 µg/mL | 0.06 µg/mL | 0.5 µg/mL |
| COc1c(-c2cc3c(s2)CCCC3=NN2CCOCC2)ccc2c(=O)c(C(=O)O)cn(C3CC3)c12 [Example 68, 1-cyclopropyl-8-methoxy-7-((4E/Z)-4-(4-morpholinvlimino)-4,5,6,7-tetrahydro-1-benzothien-2-yl)-4-oxo-1,4-dihydro-3-quinolinecarboxylic acid] | 0.125 µg/mL | 0.06 µg/mL | 0.5 µg/mL | 0.008 µg/mL | 0.125 µg/mL |
| COc1c(-c2cc3c(s2)CCC(CN)C3)ccc2c(=O)c(C(=O)O)cn(C3CC3)c12.Cl (stereo not shown) [Example 70, 7-(5-(aminomethyl)-4,5,6,7-tetrahydro-1-benzothien-2-yl)-1-cyclopropyl-8-methoxy-4-oxo-1,4-dihydro-3-quinolinecarboxylic acid hydrochloride] | 0.06 µg/mL | 0.015 µg/mL | 0.125 µg/mL | 0.03 µg/mL | 0.03 µg/mL |
| COc1c(-c2cc3c(s2)CC(N)CC3)ccc2c(=O)c(C(=O)O)cn(C3CC3)c12.O=C(O)C(F)(F)F (stereo not shown) [Example 71, 7-(6-amino-4,5,6,7-tetrahydro-1-benzothien-2-yl)-1-cyclopropyl-8-methoxy-4-oxo-1,4-dihydro-3-quinolinecarboxylic acid, trifluoroactic acid salt] | 0.015 µg/mL | 0.015 µg/mL | 0.06 µg/mL | 0.03 µg/mL | 0.03 µg/mL |
| COc1c(-c2cc3c(s2)CCCC3=NOCc2ccccc2)ccc2c(=O)c(C(=O)O)cn(C3CC3)c12 [Example 73] | 0.06 µg/mL | 0.03 µg/mL | 0.5 µg/mL | 0.015 µg/mL | 0.06 µg/mL |
| COc1c(-c2cc3c(s2)CCCC3=NN2CCCC2)ccc2c(=O)c(C(=O)O)cn(C3CC3)c12 [Example 74, 1-cyclopropyl-8-methoxy-4-oxo-7-((4E/Z)-4-(1-pyrrolidinylimino)-4,5,6,7-tetrahydro-1-benzothien-2-yl)-1,4-dihydro-3-quinolinecarboxylic acid] | 0.125 µg/mL | 0.06 µg/mL | 0.5 µg/mL | 0.015 µg/mL | 0.25 µg/mL |
| COc1c(-c2cc3c(s2)CCC(N)C3)ccc2c(=O)c(C(=O)O)cn(C3CC3)c12.Cl (stereo not shown) [Example 76, 7-(5-amino-4,5,6,7-tetrahydro-1-benzothien-2-yl)-1-cyclopropyl-8-methoxy-4-oxo-1,4-dihydro-3-quinolinecarboxylic acid hydrochloride] | 0.03 µg/mL | 0.03 µg/mL | 0.06 µg/mL | 0.015 µg/mL | 0.06 µg/mL |
| CNC1CCCc2sc(-c3ccc4c(=O)c(C(=O)O)cn(C5CC5)c4c3OC)cc21.Cl (stereo not shown) [Example 77, 1-cyclopropyl-8-methoxy-7-[4-(methylamino)-4,5,6,7-tetrahydro-1-benzothien-2-yl]-4-oxo-1,4-dihydro-3-quinolinecarboxylic acid hydrochloride] | 0.03 µg/mL | 0.06 µg/mL | 0.25 µg/mL | 0.015 µg/mL | 0.125 µg/mL |
| COc1c(-c2cc3c(s2)CCCC3CN)ccc2c(=O)c(C(=O)O)cn(C3CC3)c12 (stereo not shown) [Example 130, 7-(4-(aminomethyl)-4,5,6,7-tetrahydro-1-benzothien-2-yl)-1-cyclopropyl-8-methoxy-4-oxo-1,4-dihydro-3-quinolinecarboxylic acid] | 0.125 µg/mL | 0.015 µg/mL | 0.06 µg/mL |  | 0.125 µg/mL |
| COc1c(-c2cc3c(s2)CCCC3=NOCc2ccncc2)ccc2c(=O)c(C(=O)O)cn(C3CC3)c12 [Example 131, 1-cyclopropyl-8-methoxy-4-oxo-7-((4E/Z)-4-((4-pyridinylmethoxy)imino)-4,5,6,7-tetrahydro-1-benzothien-2-yl)-1,4-dihydro-3-quinolinecarboxylic acid] | 0.5 µg/mL | 0.125 µg/mL | 1 µg/mL |  | 0.5 µg/mL |
